Measured values: BindingDB's records for patent US20240376113 (Volastra Therapeutics, 2024)

Molecular target: T1, Ectonucleotide pyrophosphatase/phosphodiesterase family member 1 (Homo sapiens, UniProt P22413)
T1 sequence (P22413 whole entry): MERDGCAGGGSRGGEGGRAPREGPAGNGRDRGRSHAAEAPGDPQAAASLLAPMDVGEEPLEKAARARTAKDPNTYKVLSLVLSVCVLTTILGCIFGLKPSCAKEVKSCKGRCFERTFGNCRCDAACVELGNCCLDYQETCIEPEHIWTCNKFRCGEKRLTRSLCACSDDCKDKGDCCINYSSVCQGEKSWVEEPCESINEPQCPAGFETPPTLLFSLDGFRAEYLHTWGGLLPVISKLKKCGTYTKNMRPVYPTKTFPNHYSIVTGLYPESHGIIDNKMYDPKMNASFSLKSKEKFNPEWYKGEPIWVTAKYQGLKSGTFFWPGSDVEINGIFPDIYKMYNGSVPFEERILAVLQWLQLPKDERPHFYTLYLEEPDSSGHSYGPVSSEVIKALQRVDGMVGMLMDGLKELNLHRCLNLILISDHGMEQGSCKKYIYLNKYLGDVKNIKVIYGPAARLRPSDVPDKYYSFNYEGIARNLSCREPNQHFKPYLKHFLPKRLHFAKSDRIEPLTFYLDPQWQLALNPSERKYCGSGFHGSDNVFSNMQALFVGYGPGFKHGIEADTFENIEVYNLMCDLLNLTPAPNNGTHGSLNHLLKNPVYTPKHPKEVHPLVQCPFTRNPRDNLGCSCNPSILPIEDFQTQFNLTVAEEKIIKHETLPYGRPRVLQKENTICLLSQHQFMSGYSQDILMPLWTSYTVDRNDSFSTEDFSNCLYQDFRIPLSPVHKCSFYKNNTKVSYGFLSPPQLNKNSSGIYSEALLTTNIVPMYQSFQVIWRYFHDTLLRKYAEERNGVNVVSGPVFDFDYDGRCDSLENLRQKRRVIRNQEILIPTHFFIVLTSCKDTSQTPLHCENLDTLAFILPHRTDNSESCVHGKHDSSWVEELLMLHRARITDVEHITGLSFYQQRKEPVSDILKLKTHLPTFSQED
Experiment: Inhibition of ENPP1 hydrolysis of 2′,3′-cGAMP (Assay 1)
Protocol: Test compounds were plated in a 3× dilution scheme in a 384 well plate.

| Ki [nM] | SMILES |
| --- | --- |
| 0.138 | Cc1c(Cc2ccc(S(C)(=N)=O)cc2)c(N(C)C)nc2ncnn12 (configuration not stated) [US20240376113, Compound 86] |
| 28 | Cc1c(Cc2ccc(S(C)(=N)=O)cc2)c(N)cc2ncnn12 (configuration not stated) [US20240376113, Compound 89] |
